According to ChEMBL document CHEMBL4152270, “Free radical rearrangement synthesis and microbiological evaluation of novel 2-sulfoether-4-quinolone scaffolds as potential antibacterial agents” (Eur J Med Chem, 2018):
In brackets after ≈: the same amount, converted by molar mass. Activity calls are given as the source filed them. No cut-off for these calls is given here.

Columns and labels:
Pseudomonas aeruginosa = assay: Antimicrobial activity against Pseudomonas aeruginosa after 18 to 20 hrs by micro broth dilution method; format: functional
Bacillus cereus [1] = assay: Bactericidal activity against Bacillus cereus after 24 hrs by micro broth dilution method; format: functional
Staphylococcus aureus [2] = assay: Antimicrobial activity against Staphylococcus aureus after 18 to 20 hrs by micro broth dilution method; format: functional
Bacillus cereus [3] = assay: Antimicrobial activity against Bacillus cereus after 18 to 20 hrs by micro broth dilution method; format: functional
Staphylococcus aureus [4] = assay: Growth inhibition of Staphylococcus aureus at 0.25 to 0.5 times MIC after 24 hrs; format: functional, organism-based
Escherichia coli = assay: Antimicrobial activity against Escherichia coli after 18 to 20 hrs by micro broth dilution method; format: functional
Staphylococcus aureus [5] = assay: Growth inhibition of Staphylococcus aureus at 1 to 4 times MIC after 24 hrs; format: functional, organism-based
Candida albicans = assay: Antimicrobial activity against Candida albicans after 18 to 20 hrs by micro broth dilution method; format: functional
Staphylococcus aureus [6] = assay: Antimicrobial activity against methicillin-resistant Staphylococcus aureus after 18 to 20 hrs by micro broth dilution method; format: functional
Staphylococcus aureus [7] = assay: Bactericidal activity against Staphylococcus aureus after 24 hrs by micro broth dilution method; format: functional
DNA gyrase subunit A = DNA gyrase subunit A (Staphylococcus aureus, UniProt P20831); assay: Inhibition of Staphylococcus aureus DNA gyrase subunit A supercoiling activity using relaxed pBR322 DNA as substrate after 60 mins by agarose gel electrophoresis
DNA gyrase subunit A, sequence (P20831 whole entry): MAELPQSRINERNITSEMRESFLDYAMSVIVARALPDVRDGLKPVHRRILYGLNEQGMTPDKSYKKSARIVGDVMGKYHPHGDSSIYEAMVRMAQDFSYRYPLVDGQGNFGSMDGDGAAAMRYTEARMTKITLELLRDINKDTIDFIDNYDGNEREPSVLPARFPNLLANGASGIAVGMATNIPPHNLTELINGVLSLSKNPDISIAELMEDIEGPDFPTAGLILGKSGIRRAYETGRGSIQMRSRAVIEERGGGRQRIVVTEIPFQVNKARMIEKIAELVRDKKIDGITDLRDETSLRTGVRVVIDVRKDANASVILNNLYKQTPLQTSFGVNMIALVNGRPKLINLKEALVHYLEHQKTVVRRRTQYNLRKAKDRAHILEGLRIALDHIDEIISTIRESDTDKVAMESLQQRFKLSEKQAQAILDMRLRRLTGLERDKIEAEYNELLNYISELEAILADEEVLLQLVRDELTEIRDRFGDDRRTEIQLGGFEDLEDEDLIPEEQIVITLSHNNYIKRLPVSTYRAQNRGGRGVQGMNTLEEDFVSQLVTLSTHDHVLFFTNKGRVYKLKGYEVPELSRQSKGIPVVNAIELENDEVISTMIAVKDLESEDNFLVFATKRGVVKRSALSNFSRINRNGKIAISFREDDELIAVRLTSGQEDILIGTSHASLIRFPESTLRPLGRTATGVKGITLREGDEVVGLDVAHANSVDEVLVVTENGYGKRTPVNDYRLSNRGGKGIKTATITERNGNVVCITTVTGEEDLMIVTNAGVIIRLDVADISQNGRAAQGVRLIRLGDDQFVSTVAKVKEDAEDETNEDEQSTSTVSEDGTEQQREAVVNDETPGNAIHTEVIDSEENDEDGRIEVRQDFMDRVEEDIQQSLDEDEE

Compound	MIC (Pseudomonas aeruginosa)	MBC (Bacillus cereus [1])	MIC (Staphylococcus aureus [2])	MIC (Bacillus cereus [3])	growth inhibition (GI) (Staphylococcus aureus [4])	MIC (Escherichia coli)	growth inhibition (GI) (Staphylococcus aureus [5])	MIC (Candida albicans)	MIC (Staphylococcus aureus [6])	MBC (Staphylococcus aureus [7])	IC50 (DNA gyrase subunit A)
CSc1[nH]c2c(Cl)ccc(C(F)(F)F)c2c(=O)c1C(C)=O	> 200 µM	12.5 µM (≈ 4.2 µg/mL)	0.8 µM (≈ 0.269 µg/mL)	1.6 µM (≈ 0.537 µg/mL)	inactive	> 200 µM	Active	> 200 µM	> 200 µM	12.5 µM (≈ 4.2 µg/mL)	–
COc1cccc2c(=O)c(C(C)=O)c(SC)[nH]c12	> 200 µM	–	> 200 µM	> 200 µM	–	> 200 µM	–	> 200 µM	–	–	–
CSc1[nH]c2c(Br)cccc2c(=O)c1C(C)=O	> 200 µM	> 200 µM	6.25 µM (≈ 1.95 µg/mL)	> 200 µM	–	> 200 µM	–	> 200 µM	> 200 µM	25 µM (≈ 7.8 µg/mL)	–
CSc1[nH]c2c(F)ccc(C(F)(F)F)c2c(=O)c1C(C)=O	> 200 µM	6.25 µM (≈ 2 µg/mL)	0.8 µM (≈ 0.255 µg/mL)	3.12 µM (≈ 0.998 µg/mL)	–	> 200 µM	–	200 µM	> 200 µM	6.25 µM (≈ 2 µg/mL)	2.47 µM
GENTAMICIN	1 µM	3.2 µM	0.8 µM	1.6 µM	–	0.125 µM	–	–	> 200 µM	3.2 µM	–
C[C@@H]1[C@H](O)[C@@H](C)/C=C/C=C/C=C/C=C/C=C/C=C/C=C/[C@H](O[C@@H]2O[C@H](C)[C@@H](O)[C@H](N)[C@@H]2O)C[C@@H]2O[C@](O)(C[C@@H](O)C[C@@H](O)[C@H](O)CC[C@@H](O)C[C@@H](O)CC(=O)O[C@H]1C)C[C@H](O)[C@H]2C(=O)O [AMPHOTERICIN B]	–	–	–	–	–	–	–	0.2 µg/mL	–	–	–
CC(=O)c1c(O)[nH]c2ccc(C(F)(F)F)cc2c1=O	> 200 µM	–	> 200 µM	> 200 µM	–	> 200 µM	–	> 200 µM	–	–	–
CSc1[nH]c2cc(C(F)(F)F)c(C#N)cc2c(=O)c1C(C)=O	> 200 µM	25 µM (≈ 8.16 µg/mL)	0.8 µM (≈ 0.261 µg/mL)	1.6 µM (≈ 0.522 µg/mL)	inactive	> 200 µM	Active	200 µM	> 200 µM	25 µM (≈ 8.16 µg/mL)	6.47 µM
CSc1[nH]c2ccc(OC(F)(F)F)cc2c(=O)c1C(C)=O	> 200 µM	25 µM (≈ 7.93 µg/mL)	3.12 µM (≈ 0.992 µg/mL)	12.5 µM (≈ 3.97 µg/mL)	–	> 200 µM	–	> 200 µM	> 200 µM	25 µM (≈ 7.93 µg/mL)	–
CCSc1[nH]c2ccc(C(F)(F)F)cc2c(=O)c1C(C)=O	> 200 µM	50 µM (≈ 15.8 µg/mL)	6.25 µM (≈ 1.97 µg/mL)	25 µM (≈ 7.88 µg/mL)	–	> 200 µM	–	> 200 µM	> 200 µM	25 µM (≈ 7.88 µg/mL)	16.2 µM
CSc1[nH]c2cc(Br)ccc2c(=O)c1C(C)=O	> 200 µM	–	12.5 µM (≈ 3.9 µg/mL)	200 µM (≈ 62.4 µg/mL)	–	> 200 µM	–	> 200 µM	–	–	–
CSc1[nH]c2ccc(Br)cc2c(=O)c1C(C)=O	> 200 µM	–	25 µM (≈ 7.8 µg/mL)	200 µM (≈ 62.4 µg/mL)	–	> 200 µM	–	> 200 µM	–	–	–
COc1ccc(C(F)(F)F)c2c(=O)c(C(C)=O)c(SC)[nH]c12	> 200 µM	–	> 200 µM	> 200 µM	–	> 200 µM	–	> 200 µM	–	–	–
